In US11167007B2, “FOXM1 modulators and uses thereof” (City of Hope, priority 2016, dated 2021):

How the values were obtained:
FOXM1 = assay: Immunohistochemistry of FOXM1 in spinal cord; assay type: in vivo, rat; settings: rats, FIG. 5C
Protocol: (§1) Animals and Drugs. This study was carried out in strict accordance with the recommendations in the Guide for the Care and Use of Laboratory Animals of the National Institutes of Health. All experiments were performed under the IUCAC approval of City of Hope. Animals were purchased from Jackson Laboratory (Bar Harbor, Main). For the pilot pharmacokinetic experiment, nine male Sprague Dawley rats (n=3) were administered 1, 10, or 100 mg/kg intraperitoneal injections thrice per week for four weeks. One hour following the final dose, blood and spinal fluid were collected and analyzed by mass spectrometry. […] Following a treatment period of 7 days, rats were euthanized and organs harvested, weighed and processed for quantitative RT-PCR.
Immunohistochemistry. […] A veterinary pathologist, blinded to the identity of the treatment groups, scored the spinal cord sections based on the intensity of FOXM1 expression, which was typically uniform across the entirety of a section, creating a scale ranging from 0-2 in both white matter and grey matter. […] As a secondary quantification method, Image J was used to determine pixel density of FOXM1 staining. […]
Intact and castrate cohorts were included as controls. […] As a secondary quantification method, Image J was used to determine pixel density of FOXM1 staining. […]

[1] = tested on: AR activity in spinal cord; assay: RT-qPCR of androgen-regulated transcripts in spinal cord; assay type: in vivo, rat; settings: rats, compared to control treatment, FIG. 5F
Protocol: as §1, with “spectrometry. For the efficacy experiment, rats were divided into 3 groups (n=7) as follows: intact, castrated, and thiostrepton.” for “spectrometry.”
qRT-PCR. The quantitative RT-PCR method has been described by Jones et al, ACS Chem Biol, 3(7):412-8 (2008). […] Differences between experimental (x) and control (y) samples were normalized to RPL19 transcript levels (androgen unresponsive) and determined with the following calculation: (2^(Ctsgene1-Ctygene1))/(2^(CtxRPL19-CtyRPL19)) One-way analysis of variance was applied to determine statistical significant among groups, where p<0.05 was considered significant. […]

C=C(NC(=O)C(=C)NC(=O)c1csc(C2=N[C@@H]3c4csc(n4)[C@H]4NC(=O)c5csc(n5)[C@H]([C@](C)(O)[C@@H](C)O)NC(=O)[C@H]5CSC(=N5)/C(=C/C)NC(=O)[C@H]([C@@H](C)O)NC(=O)c5csc(n5)[C@]3(CC2)NC(=O)[C@H](C)NC(=O)C(=C)NC(=O)[C@H](C)NC(=O)[C@H]([C@@H](C)CC)N[C@@H]2C=Cc3c([C@H](C)O)cc(nc3[C@H]2O)C(=O)O[C@@H]4C)n1)C(N)=O [thiostrepton]
expression of FOXM1 in the spinal cord, scored by veterinary pathologist (FOXM1; 100 mg/kg per day, four weeks, IP osmotic pumps): significantly reduced | FOXM1 staining intensity, Image J pixel density (FOXM1; spinal cord, relative to untreated): lower intensity | androgen-dependent gene transcript levels in spinal cord [1]: decreases in three androgen-dependent genes
